Data as given in the NIST ThermoML archive (doi:10.1016/j.jct.2015.03.012).
Numbers after ± are expanded uncertainties. Blank lines part the entries; values can stand above or below the molecule they belong to.

Key:
[1] = mn = molality of the nth substance listed, in mol/kg; details: 298.15 K, 101.3 kPa, Liquid, Vibrating tube method
[2] = wn = mass fraction of the nth substance listed; details: 298.15 K, 101.3 kPa, Liquid, Vibrating tube method

SMILES: OC[C@@H]1CO1 [R-(+)-glycidol] + O
mass density ([1]; m1 = 0.402): 1002.68 ± 0.27 kg/m3

mass density ([2]; w1 = 0.05): 996.463 ± 0.11 kg/m3
mass density ([2]; w1 = 0.1001): 996.232 ± 0.11 kg/m3
mass density ([2]; w1 = 0.15): 996.24 ± 0.11 kg/m3
mass density ([2]; w1 = 0.2001): 996.402 ± 0.11 kg/m3
mass density ([2]; w1 = 0.2502): 996.649 ± 0.11 kg/m3
SMILES: CN(C)C=O [dimethylformamide] + O

SMILES: OCC1CO1 (stereo not drawn) [2,3-epoxy-1-propanol] + O
mass density ([1]; m1 = 0.4019): 1001.85 ± 0.44 kg/m3

SMILES: OC[C@H]1CO1 [S-(-)-glycidol] + O
mass density ([1]; m1 = 0.4554): 1002.79 ± 0.27 kg/m3
